Laboratory results from patent US10479792B2, “Compounds” (GlaxoSmithKline Intellectual Property Development Limited, priority 2015, dated 2019).

Legend:
THP-1 cells = experiment: Leishmania donovani intracellular assay (Assay 5), THP-1 cytotoxicity; type: cell-based; conditions: human, 96 h incubation, read-out: cytotoxicity against THP-1 cells, pEC50 (converted)
Description: Assay 5. Leishmania donovani Intracellular Assay
Compounds were dispensed into black 384-well assay plates (Greiner) by acoustic dispensing (LabCyte ECHO). For potency determinations, eleven-point, one in three dilution curves were generated, with a top concentration of 50 μM. THP-1 human monocytes cells were dispensed in T225 tissue culture flasks and differentiated using 30 nM of PMA, after 24 hours they were infected overnight using Leishmania donovani expressing Green Fluorescent Protein (eGFP) amastigotes in the same T225 tissue culture flasks at a multiplicity of infection of 10. Next, any remaining free amastigotes were washed away with PBS and the infected THP-1 cells were harvested by trypsinisation. The infected cells were then plated into 384-well plates containing the compounds to be tested, at 3000 cells per well in RPMI media with 2% FBS and 25 mM Sodium bicarbonate. After 96 h incubation at 37° C. in presence of 5% CO2, the plates were fixed with 4% formaldehyde for 30 minutes, washed with PBS and stained with 0.1 mg/mL of DAPI for 30 minutes and washed again with PBS. The plates were imaged on a Perkin Elmer Opera high-content imaging system using a 20× air objective with two expositions, one for DAPI stain and other for eGFP. Images were analysed using the Acapella building blocks system (Perkin Elmer). The image analysis algorithm first identified the THP-1 nuclei followed by demarcation of the cytoplasm and identification of intracellular amastigotes. This algorithm reported mean number of parasites per THP-1 cell, the percentage of infected THP-1 cells and the total number of THP-1 cells.

[1] = Solubility assay, ChemiLuminescent Nitrogen Detection (CLND) (Assay 4); type: physicochemical; conditions: phosphate buffered saline (PBS) pH 7.4, aqueous buffer, kinetic from dmso stock, PBS pH 7.4, from 10 mM DMSO stock, 1 h at room temperature
Description: Assay 4. Solubility Assay—ChemiLuminescent Nitrogen Detection (CLND) I. Compounds A 10 mM DMSO stock solution of the compound was prepared. Solvents and Buffers Organic solvents of HPLC grade were used. Ultra pure water (Milli-Q grade) was used. Buffers were prepared with ultra pure water and filtered using 0.45μ cameo filters. Aqueous Buffer Solution: Phosphate Buffer Saline (PBS) @ pH 7.4 was prepared from Sigma dry powder packs, P-3813. Each one was diluted to 1 liter with deionised water. The pH was checked before the solution was used II. Procedures. • a) DMSO concentration was measured. DMSO blanks and ondansetron and caffeine standards were added to the plate (column 12, A, B, C, & D for the blanks and E, F, G, & H for the standards). Plates were covered with foil. When the UV and CLND detectors baselines appeared to be stable, the CLND was zeroed. • b) Once DMSO concentration measurements were complete, a filtration plate was prepared from each parent plate by diluting 5 μl of the 10 mM DMSO stock solution to […] with pH7.4 PBS. • c) After the plates were prepared, they were covered with a plate lid and left to incubate for 1 h at room temperature. • d) Sample was filtered using MILLIPORE MultiScreen Solubility (MSSLBPC10) Filtration Plates, to NUNC V well plates. […]

What does the source list for `O=C(Nc1ccc(F)c(-c2ccn3c(N4CCOCC4)cnc3n2)c1)N1CCCC1` [Example 4, N-(4-fluoro-3-(3-morpholinoimidazo[1,2-a]pyrimidin-7-yl)phenyl)pyrrolidine-1-carboxamide]?
EC50 at 96 h (THP-1 cells): > 50.1 µM; solubility at 1 h [1]: > 444 µM
